The record followed here is patent publication US9790169B2, “IDO inhibitors” (BRISTOL-MYERS SQUIBB COMPANY, priority 2015, dated 2017).

Broadly, the IC50 is the point on the concentration scale where inhibition reaches its midpoint.

Where only a bound is given, the exact number is not on record here.

The test concerns the target human IDO1 (Homo sapiens, UniProt P14902). Kind of test: Assessment of human IDO-1 inhibitory activity in HEK cells (human IDO1/HEK293 cells, kynurenine read-out with Ehrlich reagent, absorbance 490 nm). It counts as cell-based. On the set-up: expressed in transfected cells. The note with it: HEK Human IDO-1 cellular assay. On the procedure: Exemplary compounds were tested for inhibition of IDO activity.
Assessment of Human IDO-1 Inhibitory Activity in HEK Cells
HEK293 cells were transfected with a pCDNA-based mammalian expression vector harboring human IDO1 cDNA (NM 002164.2) by electroporation. They were cultured in medium (DMEM with 10% FBS) containing 1 mg/ml G418 for two weeks. Clones of HEK293 cells that stably expressed human IDO1 protein were selected and expanded for IDO inhibition assay.
The human IDO1/HEK293 cells were seeded at 10,000 cells per 50 μL per well with RPMI/phenol red free media contains 10% FBS in a 384-well black wall clear bottom tissue culture plate (Matrix Technologies LLC) 100 nL of certain concentration of compound was then added to each well using ECHO liquid handling systems. The cells were incubated for 20 hours in 37° C. incubator with 5% CO2.
The compound treatments were stopped by adding trichloroacetic acid (Sigma-Aldrich) to a final concentration at 0.2%. The cell plate was further incubated at 50° C. for 30 minute. The equal volume supernatant (20 μL) and 0.2% (w/v) Ehrlich reagent (4-dimethylaminobenzaldehyde, Sigma-Aldrich) in glacial acetic acid were mixed in a new clear bottom 384-well plate. This plate was then incubated at room temperature for 30 minute. The absorbance at 490 nm was measured on Envision plate reader.
Compound IC50 values were calculated using the counts of 500 nM of a reference standard treatment as one hundred percent inhibition, and counts of no compound but DMSO treatment as zero percent inhibition.

human IDO1, sequence (P14902 whole entry): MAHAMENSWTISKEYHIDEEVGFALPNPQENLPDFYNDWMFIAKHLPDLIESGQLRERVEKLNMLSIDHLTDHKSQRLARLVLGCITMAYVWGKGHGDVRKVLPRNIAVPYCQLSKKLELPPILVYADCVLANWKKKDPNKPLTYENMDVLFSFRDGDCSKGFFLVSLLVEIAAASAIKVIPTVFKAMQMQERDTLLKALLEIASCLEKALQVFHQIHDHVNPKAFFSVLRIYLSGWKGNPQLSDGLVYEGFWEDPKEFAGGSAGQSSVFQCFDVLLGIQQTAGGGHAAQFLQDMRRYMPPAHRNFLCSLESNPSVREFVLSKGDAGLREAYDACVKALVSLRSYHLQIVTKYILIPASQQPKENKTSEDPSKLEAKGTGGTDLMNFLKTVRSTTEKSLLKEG

In the case of `Cc1ccc(CC(=O)Nc2cc(C(CC(=O)O)C3CC3)ccc2N(CC(C)C)C2CCOCC2)cc1` (racemic) [Example 1208, (+/−)-3-Cyclopropyl-3-(4-(isobutyl(tetrahydro-2H-pyran-4-yl)amino)-3-(2-(p-tolyl)acetamido)phenyl)propanoic acid], the IC50 was below 50 nM.
For `COCC(CC(=O)OC)c1ccc(N(CC(C)C)C2CCCCC2)c(NC(=O)Nc2ccc(C)cc2)c1` (racemic) [Example 1223, (+/−)-Methyl 3-(4-(cyclohexyl(isobutyl)amino)-3-(3-(p-tolyl)ureido)phenyl)-4-methoxybutanoate] the value was above 50 nM; for `COCC(CC(=O)O)c1ccc(N(CC(C)C)C2CCCCC2)c(NC(=O)Cc2ccccc2F)c1` (racemic) [Example 1230, (+/−)-3-(4-(Cyclohexyl(isobutyl)amino)-3-(2-(2-fluorophenyl)acetamido)phenyl)-4-methoxybutanoic acid], below 50 nM.
For `CCC(CC(=O)O)c1cc(F)c(N(CC(C)C)CC(C)C)c(NC(=O)Cc2ccc(C)cc2)c1` (single isomer, unassigned) [980-1] the value was below 5 nM; for `CCC(CC(=O)O)c1cc(F)c(N(CC(C)C)CC(C)C)c(NC(=O)Nc2ccc(Cl)cc2F)c1` (single isomer, unassigned) [981-1], below 5 nM.
The value for `CCC(CC(=O)O)c1cc(F)c(N(CC(C)C)CC(C)C)c(NC(=O)Nc2ccc(C)c(F)c2)c1` (single isomer, unassigned) [982-1] was below 5 nM; that for `COCC(CC(=O)O)c1ccc(N(CC(C)C)C2CCCCC2)c(NC(=O)Nc2ccc(Cl)cc2F)c1` (single isomer, unassigned) [985-1] was below 5 nM; that for `COCC(CC(=O)O)c1ccc(N(CC(C)C)C2CCCCC2)c(NC(=O)Nc2cc(C)on2)c1` (single isomer, unassigned) [987-1] was below 50 nM.
For the molecule `COCC(CC(=O)O)c1ccc(N(CC(C)C)C2CCCCC2)c(NC(=O)Nc2ccc(C)cc2)c1` (single isomer, unassigned) [989-1], the IC50 is below 5 nM.
For `COCC(CC(=O)O)c1ccc(N(CC(C)C)C2CCCCC2)c(NC(=O)Nc2cncnc2)c1` (single isomer, unassigned) [991-1] the value was below 50 nM.
The value for `COCC(CC(=O)O)c1ccc(N(CC(C)C)C2CCCCC2)c(NC(=O)Nc2cncnc2)c1` (single isomer, unassigned) [991-2] was below 5 nM.
For `COCC(CC(=O)O)c1ccc(N(CC(C)C)CC(C)C)c(NC(=O)Nc2ccc(C)cc2)c1` (single isomer, unassigned) [993-1] the value was below 50 nM; for `COCC(CC(=O)O)c1ccc(N(CC(C)C)CC(C)C)c(NC(=O)Nc2ccc(Cl)cc2F)c1` (single isomer, unassigned) [995-1], below 5 nM.
Take `COCC(CC(=O)O)c1ccc(N(CC(C)C)CC(C)C)c(NC(=O)Nc2cncnc2)c1` (single isomer, unassigned) [997-1]: the IC50 is above 50 nM.
For `COCC(CC(=O)O)c1ccc(N(CC(C)C)CC(C)C)c(NC(=O)Nc2cncnc2)c1` (single isomer, unassigned) [997-2] the value was below 50 nM.
Take `COCC(CC(=O)O)c1ccc(N(CC(C)C)CC(C)C)c(NC(=O)Nc2cc(C)on2)c1` (single isomer, unassigned) [999-1]: the IC50 is below 50 nM.
The value for `Cc1ccc(CC(=O)Nc2cc(C(CC(=O)O)C(C)C)ccc2N(C)C(C)(C)C)cc1` (single isomer, unassigned) [1007-1] was above 50 nM.
For the molecule `CC(C)C(CC(=O)O)c1ccc(N(C)C(C)(C)C)c(Nc2nc3ccccc3o2)c1` (single isomer, unassigned) [1008-1], the IC50 is above 50 nM.
The value for `COCC(CC(=O)O)c1ccc(N(CC(C)C)C2CCCCC2)c(NC(=O)Nc2ccccc2F)c1` (single isomer, unassigned) [1125 E2] was below 5 nM; that for `Cc1ccc(NC(=O)Nc2cc(C(CC(=O)O)C3CC3)ccc2N(CC(C)C)C2CCOCC2)cc1` (single isomer, unassigned) [1202 E2] was below 5 nM.
For `CC[C@@H](CC(=O)O)c1ccc(N(CC(C)C)CC(C)C)c(Nc2ccc3nc(C)sc3c2)c1` (single isomer, unassigned) [Example 9] the value was above 50 nM.
`CC[C@H](CC(=O)O)c1ccc(N(CC(C)C)CC(C)C)c(Nc2ccc3nc(C)sc3c2)c1` (single isomer, unassigned) [Example 10]: the IC50 was above 50 nM.
For `CC[C@@H](CC(=O)O)c1ccc(N(CC(C)C)CC(C)C)c(Nc2ccc(Cl)cc2)c1` (single isomer, unassigned) [Example 11], the IC50 was below 50 nM.
For `CCN(c1ccc(C(CC(=O)O)C2CC2)cc1Nc1ccc(C#N)cc1)C1CCOCC1` (single isomer, unassigned) [Example 37, 3-(3-((4-cyanophenyl)amino)-4-(ethyl(tetrahydro-2H-pyran-4-yl)amino)phenyl)-3-cyclopropylpropanoic acid] the value was below 5 nM; for `CCOc1ncc(Nc2cc(C(C)CC(=O)O)ccc2N(CC(C)(C)O)C2CCCCC2)cn1` (single isomer, unassigned) [Example 50, 3-(4-(cyclohexyl(2-hydroxy-2-methylpropyl)amino)-3-((2-ethoxypyrimidin-5-yl)amino)phenyl)butanoic acid], above 50 nM.
For `CC(CC(=O)O)c1ccc(N(CC(C)(C)O)C2CCCCC2)c(Nc2ccc(Cl)c(OCC(F)(F)F)c2)c1` (single isomer, unassigned) [Example 51, 3-(3-((4-chloro-3-(2,2,2-trifluoroethoxy)phenyl)amino)-4-(cyclohexyl(2-hydroxy-2-methylpropyl)amino)phenyl)butanoic acid] the value was above 50 nM.
The value for `CCOc1ccc(Nc2cc(C(C)CC(=O)O)ccc2N(CC(C)(C)O)C2CCCCC2)c(F)c1` (single isomer, unassigned) [Example 52, 3-(4-(cyclohexyl(2-hydroxy-2-methylpropyl)amino)-3-((4-ethoxy-2-fluorophenyl)amino)phenyl)butanoic acid] was above 50 nM.
For `CC(CC(=O)O)c1ccc(N(CC(C)(C)O)C2CCCCC2)c(Nc2ccc3c(c2)OC(F)(F)O3)c1` (single isomer, unassigned) [Example 53, 3-(4-(cyclohexyl(2-hydroxy-2-methylpropyl)amino)-3-((2,2-difluorobenzo[d][1,3]dioxol-5-yl)amino)phenyl)butanoic acid], the IC50 is below 5 nM.
The value for `CCOc1ncc(Nc2cc(C(C)CC(=O)O)ccc2N(CC(C)(C)O)C2CCCCC2)cn1` (single isomer, unassigned) [Example 54, 3-(4-(cyclohexyl(2-hydroxy-2-methylpropyl)amino)-3-((2-ethoxypyrimidin-5-yl)amino)phenyl)butanoic acid] was below 50 nM.
Take `CCOc1ccc(Nc2cc(C(C)CC(=O)O)ccc2N(CC(C)(C)O)C2CCCCC2)c(F)c1` (single isomer, unassigned) [Example 56, 3-(4-(cyclohexyl(2-hydroxy-2-methylpropyl)amino)-3-((4-ethoxy-2-fluorophenyl)amino)phenyl)butanoic acid]: the IC50 was below 50 nM.
The value for `CCOc1ncc(Nc2cc(C(CC)CC(=O)O)ccc2N(CC)C2CCCOC2)cn1` (single isomer, unassigned) [Example 69, 3-(3-((2-ethoxypyrimidin-5-yl)amino)-4-(ethyl(tetrahydro-2H-pyran-3-yl)amino)phenyl)pentanoic acid] was below 5 nM.
For `CCC(CC(=O)O)c1ccc(N(CC)C2CCCOC2)c(Nc2ccc(C#N)cc2)c1` (single isomer, unassigned) [Example 70, 3-(3-((4-cyanophenyl)amino)-4-(ethyl(tetrahydro-2H-pyran-3-yl)amino)phenyl)pentanoic acid] the value was below 5 nM; for `CCC(CC(=O)O)c1ccc(N(CC)C2CCCOC2)c(Nc2cnc(OC)nc2)c1` (single isomer, unassigned) [Example 71, 3-(4-(ethyl(tetrahydro-2H-pyran-3-yl)amino)-3-((2-methoxypyrimidin-5-yl)amino)phenyl)pentanoic acid], below 50 nM.
The value for `CCC(CC(=O)O)c1ccc(N(CC)C2CCCOC2)c(NC(=O)Nc2ccc(C)cc2)c1` (single isomer, unassigned) [Example 73 D1, 3-(4-(Ethyl(tetrahydro-2H-pyran-3-yl)amino)-3-(3-(p-tolyl)ureido)phenyl)pentanoic acid] was below 5 nM; that for `CCC(CC(=O)O)c1ccc(N(CC)C2CCCOC2)c(NC(=O)Nc2ccc(C)cc2)c1` (single isomer, unassigned) [Example 73 D2, 3-(4-(Ethyl(tetrahydro-2H-pyran-3-yl)amino)-3-(3-(p-tolyl)ureido)phenyl)pentanoic acid] was below 5 nM; that for `CCC(CC(=O)O)c1ccc(N(CC)C2CCCOC2)c(NC(=O)Nc2ccc(C)cc2)c1` (single isomer, unassigned) [Example 73 D3, 3-(4-(Ethyl(tetrahydro-2H-pyran-3-yl)amino)-3-(3-(p-tolyl)ureido)phenyl)pentanoic acid] was below 50 nM.
